Results on one molecule are retold here after patent US7795427B2, “Methods for inhibiting osteoclast differentiation, formation, or function and for increasing bone mass” (New York University, priority 2006, dated 2010).

The subject of one experiment is c-Fos mRNA. The experiment can be described thus: RT-PCR of c-Fos mRNA in osteoclast precursors. It counts as cell-based, mouse. To be noted: DPCPX 1 μM, M-CSF and RANKL, 7 days. The text has this: (§1) FIG. 7. […] I.D. NO: 21); c-Fos antisense [NT]. I.D. NO: 22); PU.1.- sense [NT]. I.D. NO: 23); PU.1 antisense [NT]. […] I.D. NO: 10).
In another experiment the test system is bone marrow cells. In words: RANKL-induced osteoclast formation from bone marrow cells (TRAP-positive MNC count). Format: cell-based, mouse. The following applies: for osteoclast formation: M-CSF and RANKL. The text has this:
FIG. 1. Effect of DPCPX on osteoclast formation by bone marrow cells. […] After 7 days cells were fixed and stained for TRAP, and the number of TRAP-positive MNCs per well was scored. (Similar results were obtained in three independent experiments). Bone marrow cells were isolated from 5- to 8-wk-old C57BL/6 female mice. Femurs and tibiae were aseptically removed and dissected free of adherent soft tissues. The bone ends were cut, and the marrow cavity was flushed out with medium αMEM from one end of the bone using a sterile 21-gauge needle. The bone marrow suspension was carefully agitated with a plastic Pasteur pipette to obtain a single-cell suspension. The cells were washed twice and resuspended (3.75×10^5 cells/ml) in α MEM containing 10% FBS, and this suspension was added to 24-well plates (500 μl/well). To each of these wells an additional 500 μl of medium containing M-CSF (30 ng/ml) and RANKL (30 ng/ml) without or with various concentrations of DPCPX and N6-CPA were added. Cultures were fed every 3 days by replacing 500 μl of culture medium with an equal quantity of fresh medium and reagents. After incubation for 7 days, wells were prepared for tartrate-resistant acid phosphatase (TRAP) staining. The number of TRAP-positive multinucleated cells (MNCs) containing three or more nuclei was scored. Osteoclast formation was evaluated by quantification of Tartrate-Resistant Acid Phosphatase (TRAP)-positive multinucleated cells (MNCs) using a modification of the method of Burstone. […] TRAP is preferentially expressed at high levels in osteoclasts and is considered, especially in the mouse, to be an osteoclast marker. After incubation, cells on wells were washed in PBS, fixed in 4% paraformaldehyde for 10 min, and stained for acid phosphatase in the presence of 0.3 M sodium tartrate (Sigma-Aldrich). The substrate used was napthol AS-BI phosphate (Sigma-Aldrich). Only those cells that were strongly TRAP-positive (dark red) and have more than 3 nuclei were counted by light microscopy.

For a further experiment, the system named is PU.1 mRNA. The experiment can be described thus: RT-PCR of PU.1 mRNA in osteoclast precursors. Format: cell-based, mouse. The following applies: DPCPX 1 μM, M-CSF and RANKL, 7 days.
Source text: as §1

Another experiment relates to TRAF6. The experiment can be described thus: TRAF6 level in cells under A1 receptor blockade (other studies, data not shown). Format: cell-based. To be noted: adenosine A1 receptors blocked by DPCPX (data not shown).
Experiment [1] deals with ovariectomized C57BL/6 mice. The experiment can be described thus: Bone loss due to ovariectomy (microCT). Format: in vivo, mouse. The following applies: OVX C57BL/6 mice, DPCPX 50 mg/kg/d oral in water, 5 weeks. How it is done: FIG. 12. Effects of the A1R Antagonist DPCPX on Bone Loss Due to Ovariectomy. […] Data are expressed as percent change relative to sham-operated vehicle-treated control mice. 6 Week old C57bl/6 female mice received ovariectomy or a sham procedure in which the ovaries were exteriorized but not removed. Mice were sacrificed 5 weeks after the surgical procedure. Mice were treated with either water alone or DPCPX dissolved in water and adjusted, based on the weight of the animals, to a dose of 50 mg/kg/d. Femoral μCT was measured as described (Hildebrand […] new method for the model-independent assessment of thickness in three-dimensional images. J Microsc 1997; 185:67-75) by using a MS-8 (MS-8, GE Healthcare, London, Ontario, Canada) at 18 μm isotropic resolution-scans calibrated by air, water and a mineral standard material phantom/Parker algorithm for digital reconstruction.

The subject of another experiment is osteoclast precursors. In words: Osteoclast formation with DPCPX added at different days of culture. It counts as cell-based, mouse. On the procedure: FIG. 5. DPCPX Inhibits Osteoclastogenesis by Acting on Osteoclast Precursors. […] After culture for 7 days with DPCPX, cells were stained for TRAP. Results are expressed as the mean±SEM of three cultures per variable. […] TRAP is preferentially expressed at high levels in osteoclasts and is considered, especially in the mouse, to be an osteoclast marker. After incubation, cells on wells were washed in PBS, fixed in 4% paraformaldehyde for 10 min, and stained for acid phosphatase in the presence of 0.3 M sodium tartrate (Sigma-Aldrich). The substrate used was napthol AS-BI phosphate (Sigma-Aldrich). Only those cells that were strongly TRAP-positive (dark red) and have more than 3 nuclei were counted by light microscopy. To determine at which stage DPCPX inhibits osteoclast differentiation, osteoclast precursors were incubated with M-CSF, RANKL and DPCPX was added on day 0, 3 and 6. After culture for a total of 7 days with DPCPX, TRAP-positive multinucleated cells were enumerated.

Experiment [2] concerns RANKL-induced NF-κB signaling. The experiment can be described thus: RANKL-induced NF-κB signaling in osteoclast precursors (Western blot of cytoplasmic and nuclear fractions). Format: cell-based, mouse. The following applies: M-CSF and RANKL. Set-up: dose or concentration left out as unconfirmed.
A further experiment has as its system murine splenocytes. In words: RANKL-induced osteoclast formation by splenocytes (TRAP-positive MNC count). Format: cell-based, mouse. The following applies: for osteoclast formation: M-CSF and RANKL. How it is done: FIG. 4. Effect of DPCPX on osteoclast formation by Splenocytes. […] After 7 days cells were fixed and stained for TRAP, and the number of TRAP-positive MNCs per well was scored. (Similar results were obtained in three independent experiments). Splenocytes were isolated from 5- to 8-wk-old C57BL/6 female mice aspreviously described with modification. In brief, spleens were putted on top of 100 μm cell strainer in 50 ml falcon, mashed with plunger and rinsed the released cells through the strainer with 8 ml PBS. The nonadherent cells were layered on top of the lymphocyte separation medium. The cells were spin 1500 rpm for 20 minutes. The macrophages/lymphocyte white band was located about 1 cm below the top of the LSM. The PBS was aspirated until 1 ml above the band then 1 ml was removing to 50 ml Falcon including the band. To this Falcon 19 ml PBS was added and spine 1500 rpm for 15 minutes. PBS was removed and 10 ml αMEM was added. The cells were resuspended (3×10^5 cells/ml) in αMEM containing 10% FBS, and this suspension was added to 24-well plates ([…]) as described above. […] TRAP is preferentially expressed at high levels in osteoclasts and is considered, especially in the mouse, to be an osteoclast marker. After incubation, cells on wells were washed in PBS, fixed in 4% paraformaldehyde for 10 min, and stained for acid phosphatase in the presence of 0.3 M sodium tartrate (Sigma-Aldrich). The substrate used was napthol AS-BI phosphate (Sigma-Aldrich). Only those cells that were strongly TRAP-positive (dark red) and have more than 3 nuclei were counted by light microscopy.

The mark [3] stands for this setting: M-CSF and DPCPX without RANKL (data not shown).
The mark [4] stands for this setting: increasing concentrations of DPCPX added day 0 with M-CSF and RANKL (30 ng/ml each), 7 days.
Setting [5] is: DPCPX 3 days (per FIG. 8 legend).

“Also recorded” adds a separate entry of the source.

As for `CCCn1c(=O)c2[nH]c(C3CCCC3)nc2n(CCC)c1=O` [DPCPX, 8-cyclopentyl-1,3-dipropylxanthine], the “c-Fos mRNA expression” value with c-Fos mRNA is given as “does not affect”. The osteoclast formation result is “significantly inhibit” in the experiment on bone marrow cells (DPCPX 1 nM, 7 days); “complete inhibition” in the experiment with bone marrow cells (DPCPX 1 μM, 7 days); “inhibited” in the experiment with osteoclast precursors (DPCPX added on day 0, total culture 7 days); “inhibition decreased” with osteoclast precursors (DPCPX addition delayed (day 3, day 6), total culture 7 days); “significantly inhibited” with murine splenocytes (DPCPX 1 nM, 7 days); “almost complete inhibition” with murine splenocytes (DPCPX 1 μM, 7 days). The “TRAP-positive cells in the absence of RANKL” value in the experiment with bone marrow cells (setting [3]) and in the experiment with murine splenocytes (setting [3]) was “no TRAP-positive cells were seen” each time. In addition, the “number of TRAP-positive cells” value in the experiment on bone marrow cells (setting [4]) is listed as “strikingly inhibited the number of TRAP-positive cells in a dose-dependent manner”. In addition, in the experiment with PU.1 mRNA, the “PU.1 mRNA expression” value is given as “does not affect”. In addition, in the experiment with TRAF6, the “TRAF6 in the cell” value was “is lost from the cell”. Further, the “bone mass / trabecular bone volume (bone volume/total volume) following ovariectomy” value in experiment [1] was “did not lose bone mass; also recorded: prevents ovariectomy-induced bone loss”. Besides, in experiment [2] (setting [5]), the “cytoplasmic p50 and p65” value was “accumulate in the cytoplasm”. Moreover, the “nuclear translocation of p50 and p65” value in experiment [2] (setting [5]) is on record as “totally prevents”. In experiment [2] (DPCPX treatment for 3 days (per FIG. 8 legend)), the “RANKL-induced degradation of IκB” value is “inhibited”. The “number of TRAP-positive multinucleated cells” value in the experiment with murine splenocytes (setting [4]) was “strikingly diminished the number of TRAP-positive multinucleated cells in a dose-dependent manner”.
